# Laboratory results from patent publication US20260078099A1, “COMPOUND, PREPARATION METHOD THEREOF, AND LIPID NANOPARTICLE AND PHARMACEUTICAL COMPOSITION” (priority 2023, published 2026).
# Assays:
# [1] = LNP size and PDI by dynamic light scattering; type: physicochemical; conditions: mRNA LNP, cationic lipid/DSPC/cholesterol/PEG-lipid 50:10:38.5:1.5
# Method: (§1) In summary, the cationic lipid described herein, DSPC, cholesterol, and PEG-lipid were dissolved in ethanol at a molar ratio of 50:10:38.5:1.5 and diluted in 10 mM to 50 mM citrate buffer at pH 4 with mRNA. Using a microfluidic device, the lipid ethanol solution was mixed with mRNA aqueous solution at a volume ratio of 1:3 and a total flow rate ranging from 6-30 mL/min, preparing LNPs with a total lipid to mRNA weight ratio of approximately 10:1 to 30:1. Ethanol was removed by dialysis and replaced with PBS. Finally, the lipid nanoparticles were filtered through a 0.22 μm sterile filter.
# (§2) The size of lipid nanoparticles was measured by dynamic light scattering using a Malvern Zetasizer Nano ZS (Malvern, UK) with a 90° scattering detection mode. The encapsulation efficiency of lipid nanoparticles was determined using the Quant-it Ribogreen RNA Quantitation Kit (Thermo Fisher Scientific, UK) according to the manufacturer's instructions. The apparent pKa of LNP formulations correlates with the delivery efficiency of nucleic acids by LNPs in vivo. The apparent pKa ranges from approximately 5 to 7. An analysis based on fluorescence from 2-(p-tolylamino)-6-naphthalenesulfonic acid (TNS) was used to determine the apparent pKa of formulations. As described above, LNP formulations containing cationic lipid/DSPC/cholesterol/DMG-PEG (50/10/38.5/1.5 mol %) in PBS were prepared. A 300 μM stock solution of TNS in distilled water was prepared. LNP formulations were diluted to 0.1 mg/mL total lipid in 3 mL of buffer solution containing 50 mM sodium citrate, 50 mM sodium phosphate, 50 mM sodium borate, and 30 mM sodium chloride (pH ranged from 3 to 9). […] S-shaped curve best-fit analysis was applied to the fluorescence data, and the pKa value was measured as the pH value producing half-maximal fluorescence intensity.
# [2] = LNP encapsulation efficiency (Quant-it Ribogreen); type: physicochemical; conditions: mRNA LNP, cationic lipid/DSPC/cholesterol/PEG-lipid 50:10:38.5:1.5
# Description: Encapsulation Efficiency: The encapsulation efficiency of a therapeutic and/or prophylactic agent refers to the amount of the therapeutic and/or prophylactic agent encapsulated within or otherwise associated with the nanoparticle composition relative to the initial amount provided during preparation. Encapsulation efficiency is desirably high (such as close to 100%). Encapsulation efficiency can be measured, for example, by comparing the amount of therapeutic and/or prophylactic agent in a solution containing the nanoparticle composition before and after disruption of the nanoparticle composition using one or more organic solvents or detergents. Fluorescence can be used to measure the amount of free therapeutic and/or prophylactic agent (e.g., RNA) in solution. For the nanoparticle compositions described herein, the encapsulation efficiency of the therapeutic and/or prophylactic agent may be at least 50%, such as 50%, 55%, 60%, 65%, 70%, 75%, 80%, 85%, 90%, 91%, 92%, 93%, 94%, 95%, 96%, 97%, 98%, 99%, or 100%. In some embodiments, the encapsulation efficiency may be at least 80%. In certain embodiments, the encapsulation efficiency may be at least 90%.
# as §1, §2
# LNP zeta potential = type: physicochemical; conditions: mRNA LNP
# Description: Nanoparticle compositions can be characterized by various methods. For example, the morphology and size distribution of nanoparticle compositions can be examined using microscopy (e.g., transmission electron microscopy or scanning electron microscopy). The zeta potential can be measured using dynamic light scattering or potentiometric titration. Dynamic light scattering can also be used to determine particle size. Instruments such as the Zetasizer Nano ZS (Malvern Instruments Ltd., Malvern, Worcestershire, UK) can also be used to measure multiple characteristics of nanoparticle compositions, such as particle size, polydispersity index, and zeta potential.
# […]: The zeta potential of the nanoparticle composition can indicate the electrophoretic potential of the composition. For example, zeta potential may describe the surface charge of the nanoparticle composition. Nanoparticle compositions with relatively low positive or negative charges are generally desirable, as materials with higher charges may interact undesirably with cells, tissues, and other components in the body. In some embodiments, the zeta potential of the nanoparticle composition may be about −10 mV to about +20 mV, about −10 mV to about +15 mV, about −10 mV to about +10 mV, about −10 mV to about +5 mV, about −10 mV to about 0 mV, about −10 mV to about −5 mV, about −5 mV to about +20 mV, about −5 mV to about +15 mV, about −5 mV to about +10 mV, about −5 mV to about +5 mV, about −5 mV to about 0 mV, about 0 mV to about +20 mV, about 0 mV to about +15 mV, about 0 mV to about +10 mV, about 0 mV to about +5 mV, about +5 mV to about +20 mV, about +5 mV to about +15 mV, or about +5 mV to about +10 mV.
# mice = test: Bioluminescent study, intramuscular injection of F-luc mRNA LNPs; type: in vivo; conditions: F-luc luminescence flux normalized to MC3; 0.25 mg/kg intramuscular, mice n=3, 6-hour time point
# Method: The efficacy of nanoparticle compositions was evaluated using bioluminescent studies. A dose of 0.25 mg/kg (mpk) of the formulation was administered to mice (n=3) via intramuscular injection, and bioluminescence was measured at a 6-hour time point. The test lipid nanoparticles from the MC3 formulation were evaluated, and in some cases, controls (e.g., PBS controls) were assessed for comparison.
# The characteristics of the test lipid nanoparticles measured from the test groups, including F-luc luminescence intensity, are listed in the table below.
SMILES,PDI [1],Size (nm) [1] [nm],Encapsulation efficiency (%) [2] [%],Zeta potential (mV) (LNP zeta potential),Relative Total flux (mice)
CCCCCCCCCCOCCCCCCCC(=O)N(CCCN(C)C)C(CCCCCCCC)C(=O)NCCCCCC(=O)OC(CCCCCCCC)CCCCCCCC (stereo not drawn) [Compound A41],0.66,264.60,54.08,−10.28,C (C: ≥0.1 and <1)
CCCCCCCCC(CCCCCC)COC(=O)CCCCCNC(=O)C(CCCCC)N(CCCN1CCCC1)C(=O)CCCCCC(=O)OCC(CCCCCC)CCCCCCCC (stereo not drawn) [Compound A45],0.06,79.00,94.62,0.83,A (A: ≥2)
CCCCCCCCNC(=O)C(CCCCCCCC)N(CCCN(C)C)C(=O)CCCCCC(=O)NC(CCCCCCC)CCCCCCC (stereo not drawn) [Compound A32],0.13,85.33,95.33,1.89,B (B: ≥1 and <2)
CCCCCCCC(C(=O)NCCCCCCCCCC(=O)OC(CCCCCC)CCCCCC)N(CCCN1CCCC1)C(=O)CCCCCCCCCC(=O)OCC1CC=CCC1 (stereo not drawn) [Compound A9],0.191,64.58,93.54,−18.67,D (D: <0.1.)
CCCCCCCCNC(=O)CCCCCNC(=O)C(CCCCCCCC)N(CCCN(C)C)C(=O)CCCCCC(=O)NC(CCCCCCC)CCCCCCC (stereo not drawn) [Compound A31],0.22,79.94,97.50,−4.31,B (B: ≥1 and <2)
CCCCCCCCC(C(=O)NCCCCCCCCCC(=O)OCC1CC=CCC1)N(CCCN1CCCC1)C(=O)CCCCCCCCCC(=O)OC(CCCCCC)CCCCCC (stereo not drawn) [Compound A10],0.415,61.16,54.08,−3.45,A (A: ≥2)

# The next lines start with results.
PDI [1],Size (nm) [1] [nm],Encapsulation efficiency (%) [2] [%],Zeta potential (mV) (LNP zeta potential),SMILES,Relative Total flux (mice)
0.391,93.23,93.73,−2.36,CCCCCCCC(C(=O)NCCCCCCCCCC(=O)OC(CCCCCC)CCCCCC)N(CCCn1ccnc1)C(=O)CCCCCCCCCC(=O)OC(CCCCCC)CCCCCC (stereo not drawn) [Compound B20],A (A: ≥2)
0.10,62.10,93.73,1.69,CCCCCCCCNC(=O)C(CCCCCCCC)N(CCN(CC)CCO)C(=O)CCCCCCC(=O)OC(CCCCCCCC)CCCCCCCC (stereo not drawn) [Compound B29],A (A: ≥2)
0.10,61.00,95.03,4.83,CCCCCCCCNC(=O)C(CCCCCCCC)N(CCN(C)CCO)C(=O)CCCCCCC(=O)OC(CCCCCCCC)CCCCCCCC (stereo not drawn) [Compound B31],A (A: ≥2)
0.182,87.64,95.93,2.43,CCCCCCCC(C(=O)NCCCCCCCCCC(=O)OC(CCCCCC)CCCCCC)N(CCN(CCO)C1CCCCC1)C(=O)CCCCCCCCCC(=O)OC(CCCCCC)CCCCCC (stereo not drawn) [Compound B15],A (A: ≥2)
0.183,78.42,96.72,−17.80,CCCCCCC(CCCCCC)OC(=O)CCCCCCCCCNC(=O)CN(CCN(C)CCN(CC(=O)NCCCCCCCCCC(=O)OC(CCCCCC)CCCCCC)C(=O)CCCCCCCCCC(=O)OC(CCCCCC)CCCCCC)C(=O)CCCCCCCCCC(=O)OC(CCCCCC)CCCCCC [Compound D5],A (A: ≥2)
0.152,60.47,91.38,−7.30,CCCCCCCC(C(=O)NCCCCCCCCCC(=O)OC(CCCCCC)CCCCCC)N(CCCN(C)CCO)C(=O)CCCCCCCCCC(=O)OC(CCCCCC)CCCCCC (stereo not drawn) [Compound B8],A (A: ≥2)
